According to article PMC4820820, “CETSA screening identifies known and novel thymidylate synthase inhibitors and slow intracellular activation of 5-fluorouracil” (Nature Communications, 2016):
“And” between values parts separate entries of the source, which are not always exact repeats. Identical values can stand only once. Like-named read-outs stand apart in the source and are kept apart here. One block for each molecule: values may come before it.

Tests used:
[1] = biological target: T1, human thymidylate synthase (TS) (Homo sapiens, UniProt P04818); assay: ITDRF CETSA at 50 °C, AlphaScreen detection, live K562 cells; assay type: cell-based; settings: for EC50: 2 h preincubation
T1 construct: screening in live, non-engineered cells expressing thymidylate synthase; endogenous in cells; host or cells: K562 (human myelogenous leukemia) cells
T1 sequence (P04818 2-313 limits assumed): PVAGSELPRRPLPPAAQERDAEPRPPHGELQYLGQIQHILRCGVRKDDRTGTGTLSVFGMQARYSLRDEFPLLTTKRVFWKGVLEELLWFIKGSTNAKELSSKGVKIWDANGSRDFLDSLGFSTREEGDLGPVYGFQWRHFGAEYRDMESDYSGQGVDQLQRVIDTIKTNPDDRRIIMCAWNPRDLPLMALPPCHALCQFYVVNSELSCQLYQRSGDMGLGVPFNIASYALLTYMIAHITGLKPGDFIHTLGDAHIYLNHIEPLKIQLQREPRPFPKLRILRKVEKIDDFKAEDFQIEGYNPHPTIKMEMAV
Description: For the […] experiments 11-point dose-response curves with three-fold difference in concentration between wells were generated using the Bravo liquid handling system (all serial dilutions were done in 100% DMSO). […] The concentration of DMSO was 0.5% in all samples. […] The assay ready plates were prepared as outlined above for the screen.
(§1) The screen procedure started with the addition of 5 μl of a suspension of K562 cells at a density of 10 million cells per ml to all wells of a 384 well hardshell PCR plate (HSR480, BIORAD) using an electronic multichannel pipette (Biohit). […] For the time-course experiments the incubation times were altered to include also 10 min, 30 min and 6 h. […] After the incubation step the plates were transiently heated at 50 °C for 3 min followed by a controlled cooling to 20 °C for 1 min using a real-time PCR machine (LightCycler480 system, Roche). Plate handling was then as described above for the thermal aggregation experiments. The data were analyzed using microsoft excel and GraphPad Prism 6.
(§2) A calculation of the average and standard error of means for each set of controls also allowed an illustration of how these responses varied over the 32 screening plates. The Z′ factor[38] is commonly used as a measure of how well the assay separates between the controls and this was calculated as described based on the calculated averages and standard deviations of the controls on a per plate basis. For the Tagg shift and the […] experiments the data were analyzed in GraphPad Prism using the Boltzmann sigmoid equation and the saturation binding curve (rectangular hyperbola; binding isotherm) function, respectively. As already discussed[14] these methods make use of equilibrium models for data analysis although the methodology depends on the irreversible aggregation of denatured material. For this reason we refer to the observed responses as apparent and isothermal dose-response fingerprints and are careful with any quantitative interpretations, being well aware of their dependency on experimental conditions. Experiments are on-going to address the quantitative interpretation of CETSA data.

[2] = biological target: T1, human thymidylate synthase (TS); assay: CETSA primary screen / single-concentration retest, AlphaScreen, live K562 cells; assay type: cell-based; settings: for % stabilization in screen at 50 µM: K562, 2 h, read-out: % stabilization in screen
Description: Compounds were placed in columns 1–22. […] At the day of the experiment the plates were allowed to thaw for 30 min followed by a brief centrifugation step (1,000 × g for 1 min) prior to removal of the seal. The compounds were then diluted with 20 μl supplemented cell culture medium using a Multidrop Combi reagent dispenser (Thermo Scientific). Finally 5 μl of the diluted compounds were transferred to a 384 well hardshell PCR plate (HSR480, BIORAD) using a Bravo liquid handling platform equipped with a 384-well head (Agilent). […] The final concentration of DMSO in the assay was 0.5% in all samples.
as §1, §2

[3] = Intracellular compound and metabolite concentrations by LC-MS/MS in K562 cells; assay type: in vitro ADME, human; settings: K562 cells incubated with 100 µM 5-FU, first 6 h
Description: Intracellular concentrations of compounds were measured as previously described. Briefly, K562 cells were incubated with the compounds for a predefined time at 37 °C in a 5% CO2 atmosphere. After incubation, the cells were centrifuged (300 × g for 5 min) and a medium sample (supernatant) was collected and diluted 1:10 in a 50 nM warfarin solution (internal standard). The cells were washed with phosphate buffered salt solution and lysed with methanol. Methanol was evaporated and the cell samples were reconstituted in 50 nM warfarin. Samples were analyzed with LC–MS/MS with electrospray ionization in negative mode with transitions monitored as listed in Table 2.

TS = TS (Homo sapiens, UniProt P04818); assay: Thermal shift in vitro assay on recombinant protein; assay type: binding; parameters: His6 tag with TEV site (vector-encoded by pNIC28-Bsa4); made in house; host or cells: Rosetta BL21-DE3 Escherichia coli; settings: nucleoside without enzyme treatment
Sequence of TS (P04818 whole entry): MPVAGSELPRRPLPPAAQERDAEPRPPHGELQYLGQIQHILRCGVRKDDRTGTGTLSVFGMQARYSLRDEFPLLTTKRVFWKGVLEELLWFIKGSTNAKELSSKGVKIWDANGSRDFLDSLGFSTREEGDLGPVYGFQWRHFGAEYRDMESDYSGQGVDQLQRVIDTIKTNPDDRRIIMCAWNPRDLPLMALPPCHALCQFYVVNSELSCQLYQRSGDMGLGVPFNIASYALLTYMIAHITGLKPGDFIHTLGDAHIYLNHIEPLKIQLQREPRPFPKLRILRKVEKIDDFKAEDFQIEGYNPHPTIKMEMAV
Description: The assay was performed on the iCycler iQ Real Time PCR Detection System (Bio-Rad), using the 96-well thin-wall PCR plate (Bio-Rad). The experiment was conducted in a buffer containing 20 mM HEPES at pH 7.5 and 150 mM NaCl. A total volume of 25 μl solution containing 0.2 mg ml^−1 protein, compounds and × 5 Sypro Orange dye (Invitrogen) diluted from 5,000 × stock was dispensed into the 96-well plate. The same amount of DMSO was added in the control wells. The plates were sealed with Microseal B adhesive sealer (Bio-Rad) and heated in iCycler from 25 to 80 °C (56 heating cycles in 28 min). Fluorescent filter used for Sypro Orange measurements was λexcitation=492 nm and λemission=610 nm. The calculation of the midpoint of the curves (Tm) was performed using the software package XLfit from IDBS within microsoft excel.
Decitabine at a concentration of 1 mM was incubated with 1 mg ml^−1 of recombinant DCK and 2.5 mM ATP in a buffer of 50 mM Tris at pH 7.5, 150 mM NaCl and 0.5 mM MgCl2 at room temperature for 60 min to generate the corresponding monophosphates. To probe for nucleotide deamination the samples were further treated with 1 mg ml^−1 of recombinant DCTD in the presence of 1 mM ATP and 10 μM ZnCl2 for 20 min at room temperature. After incubation, the samples were heated at 95 °C for 10 min and centrifuged for 10 min at the highest speed at 4 °C using a benchtop centrifuge. The supernatant was tested without dilution in thermal shift in vitro assays and the TS enzyme inhibition assay. The supernatants from samples without nucleoside were used as the treatment controls.

[4] = biological target: T1, human thymidylate synthase (TS); assay: CETSA Tagg curves, AlphaScreen detection, live K562 cells; assay type: cell-based; settings: 2 h preincubation, 3 min heating, DMSO control 46.7±0.2 °C
Description: The data were analyzed using microsoft excel and GraphPad Prism 6.
as §2

[5] = 50 °C, unit taken from curve axis log [cmp] (M), read-out: ITDRF CETSA (hit confirmation)
[6] = 50 μM compound, 2 h preincubation, 50 °C, 0% = DMSO, 100% = 100 nM raltitrexed

Structure (SMILES): C#Cc1cn([C@H]2C[C@H](O)[C@@H](CO)O2)c(=O)[nH]c1=O [CBK201207, 5-ethynyl-2′-deoxyuridine, reference compound]
EC50 [1, 5]: 1.41e-09 M
% stabilization in screen at 50 µM [2, 6]: 102%

Structure (SMILES): O=c1[nH]cc(F)c(=O)[nH]1 [Compound 5-FU, 5-fluorouracil]
EC50 ([1]; 50 °C for 3 min, read-out: […] apparent EC50): 1.9e-05 ± 4e-06 M
% stabilization in screen at 50 µM [2]: 48%
intracellular levels of FdUMP [3]: undetectable

Structure (SMILES): O=c1[nH]c(=O)n([C@H]2C[C@H](O)[C@@H](CO)O2)cc1C(F)(F)F [TFT, 5-trifluoro-2′-deoxythymidine]
EC50 [1, 5]: 3.18e-10 M
% stabilization in screen at 50 µM [2]: 66%
stabilization of recombinant TS in thermal shift assay (TS): did not stabilize

Structure (SMILES): O=c1ccn([C@H]2C[C@H](O)[C@@H](CO)O2)c(=O)[nH]1 [deoxyuridine]
stabilization of recombinant TS in thermal shift assay (TS): did not stabilize

Structure (SMILES): O=c1[nH]c(=O)n([C@H]2C[C@H](O)[C@@H](CO)O2)cc1F [floxuridine, 5-fluorodeoxyuridine]
concentration giving stabilization of TS (CETSA) ([1]; 10 min of pre-incubation): low nM
EC50 [1, 5]: 6.61e-11 M
EC50 ([1]; ITDRFCETSA EC50 (half-maximal stabilization of TS), 50 °C for 3 min, read-out: […] EC50 (half-maximal stabilization of TS)): 6.5e-11 M and 4.7e-11 M
% stabilization in screen at 50 µM [2, 6]: 64%
apparent Tagg of TS ([4]; 15 μM floxuridine): above 65 °C
stabilization of recombinant TS in thermal shift assay (TS): did not stabilize

Structure (SMILES): Cc1nc2ccc(CN(C)c3ccc(C(=O)N[C@@H](CCC(=O)O)C(=O)O)s3)cc2c(=O)[nH]1 [raltitrexed]
apparent Tagg of TS ([4]; 1 μM raltitrexed): above 65 °C

Further lines, results first:

EC50 [1, 5]: 8.38e-06 M
% stabilization in screen at 50 µM [2]: 76%
Structure (SMILES): CCc1nc(N)nc(N)c1-c1ccc(Cl)cc1 [CBK041886, Pyrimethamine, reference compound]

EC50 [1, 5]: 2.28e-05 M
% stabilization in screen [2, 6]: 90%
Structure (SMILES): CC#Cc1cn([C@H]2C[C@@H](O)[C@@H](CO)O2)c(=O)[nH]c1=O [CBK201182]

EC50 [1, 5]: 9.17e-06 M
% stabilization in screen [2, 6]: 66%
Structure (SMILES): Cc1cc(C)c(Oc2nc(=O)n([C@H]3C[C@@H](O)[C@@H](CO)O3)cc2F)c(C)c1 [CBK201184]

EC50 [1, 5]: 3.43e-07 M
% stabilization in screen [2, 6]: 22%
Structure (SMILES): Nc1nc(=O)n([C@H]2C[C@@H](O)[C@@H](CO)O2)cc1O [CBK201221]

EC50 [1, 5]: 1.42e-07 M
% stabilization in screen [2, 6]: 23%
Structure (SMILES): COCc1cn(C2CC(O)C(CO)O2)c(=O)[nH]c1=O (centres unmarked) [CBK201230]
